In article PMC2246479, “A phase 1 and pharmacokinetic study of didox: a ribonucleotide reductase inhibitor” (British Journal of Cancer, 1988):

Tests used:
[1] = test system: pools of deoxyribonucleotides; conditions: cited from earlier work
[2] = test system: ribonucleotide reductase; conditions: cited from earlier work
[3] = test system: mice; conditions: single dose, ref CRC Sponsored Toxicity Report, 1984; cited from earlier work
[4] = in vivo
[5] = test system: patients with unresponsive metastatic carcinoma; conditions: in vivo
[6] = set-up: method as in Van't Riet, personal communication; conditions: rats; ref Van't Riet, personal communication; cited from earlier work
[7] = test system: NCI tumour panel; set-up: method as in Elford & Van't Riet, 1985; conditions: ref Elford & Van't Riet, 1985; cited from earlier work
[8] = test system: metastatic carcinoma; assay: Clinical response in the phase 1 study; format: in vivo, human; conditions: 34 patients, any dosage level
[9] = test system: a number of cell lines; conditions: continuous drug exposure, no reference given; cited from earlier work
[10] = test system: L1210 leukaemia; set-up: method as in Van't Riet et al., 1979; conditions: L1210 leukaemia bearing female mice; ref Van't Riet et al., 1979; cited from earlier work
[11] = test system: murine tumours; set-up: method as in Elford et al., 1984; conditions: ref Elford et al., 1984; cited from earlier work

SMILES: NC(=O)NO [hydroxyurea, reference compound]
- Deoxyribonucleotide pools depleted ([1]; ref Thelander & Reichard 1979): only depleted pools of dGTP and dATP
- Inhibition of ribonucleotide reductase in vitro ([2]; ref Elford, 1968): weak inhibitor

SMILES: O=C(NO)c1ccc(O)c(O)c1 [didox, N,3-4 trihydroxy-benzamide]
- Depletion of the pools of all deoxyribonucleotides ([1]; ref Elford et al., 1981): over 50%
- IC50 ([2]; enzyme study, no reference given, read-out: Concentration causing 50% inhibition of the target enzyme): 30 µM
- Inhibition of ribonucleotide reductase compared to hydroxyurea ([2]; ref Elford et al., 1979): greater inhibition
- LD10 [3]: 643 mg/kg
- Steady state volume of distribution ([4]; human): 27.9 ± 6.2 lm-2
- Total body Clearance ([4]; human): 0.71 ± 0.19 Imin- 1 m-2
- t1/2 alpha ([4]; human): 5.2 min
- t1/2 beta ([4]; human): 41.3 min
- Time to peak level of didox after injection ([4]; human, iv): ≤ 5 min
- Administered dose excreted unchanged in the urine ([4]; iv): Less than 10%
- Time within which the majority of urinary excretion occurred ([4]; iv): ≤ 6 h
- Maximum tolerated dose / dose that can be safely given ([5]; human, iv): 6 g m-2
- Patients with severe diarrhoea (grade 4) [5]: 2 patients
- Total white cell count after didox [5]: > 20 x 109 1-
- Dose above which severe nausea and vomiting almost universal ([5]; iv): above 7 g m- 2
- Dose at which dose limiting toxicity was encountered ([5]; iv): 7.5 g m-2
- Dose at which minor toxicity was initially noted ([5]; iv): 2,304 mg m 2
- Major metabolites formed [6]: 3,4-dihydroxybenzamide, 3-hydroxy-4-methoxybenzo- hydroxamic acid and 3-methoxy-4-hydroxy- benzohydroxamic acid
- Activity in the NCI tumour panel [7]: active
- Clinical responses [8]: No clinical responses
- Growth inhibitory concentration in vitro [9]: up to 100 uM
- Anti-neoplastic activity [10]: anti-neoplastic activity
- Interaction with doxorubicin and cyclophosphamide [11]: act synergistically
